Measured values taken from the NIST ThermoML archive (doi:10.1016/j.fluid.2010.02.012).
Numbers after ± are expanded uncertainties.

Test: excess molar enthalpy (molar enthalpy of mixing); xn = mol fraction of the nth substance listed
Conditions: 298.18 K, 101 kPa, Liquid, Calvet calorimetry

CCCCCCCCCC [decane] + CCO
Conditions	excess molar enthalpy [kcal/mol]
x2 = 0.0881	0.12 ± 0.00263
x2 = 0.1338	0.142 ± 0.00311
x2 = 0.1766	0.159 ± 0.00335
x2 = 0.2665	0.174 ± 0.00382
x2 = 0.3141	0.176 ± 0.00382
x2 = 0.4314	0.176 ± 0.00382
x2 = 0.5931	0.161 ± 0.00359
x2 = 0.6501	0.153 ± 0.00335
x2 = 0.7248	0.141 ± 0.00311
x2 = 0.7837	0.128 ± 0.00287
x2 = 0.8079	0.123 ± 0.00263
x2 = 0.848	0.105 ± 0.00239
x2 = 0.8829	0.0894 ± 0.00191
x2 = 0.9377	0.0576 ± 0.0012
x2 = 0.962	0.038 ± 0.000956
